According to patent publication US9453038B2, “Glucokinase activator compounds, compositions containing such compounds, and methods of treatment” (Merck Sharp & Dohme Corp., priority 2012, dated 2016):

Biological target: Recombinant human liver glucokinase (FLAG fusion protein) (Homo sapiens (Human), UniProt P35557)
Assay: glucokinase (GK) activation assay, Thio-NADH formation coupled to G6PDH, absorbance at 405 nm
Assay type: biochemical
Conditions: 2.5 mM Glu; for EC50: 30° C.; for Emax: OD value of DMSO control regarded as 100%, read-out: Emax
Source text: The glucokinase activity can, for instance, be determined without directly measuring glucose-6-phosphate by measuring the amount of Thio-NADH generated during the production of phosphogluconolactone from glucose-6-phosphate by a reporter enzyme glucose-6-phosphate dehydrogenase.
To test the exemplified compounds, the following assay was employed. Recombinant human liver glucokinase was expressed as a FLAG fusion protein in E. coli, and purified on ANTIFLAG M2 AFFINITY GEL (Sigma). The assay was carried out at 30° C. in a 96-well plate. In the plate was distributed 69 μl each of assay buffer (25 mM Hepes Buffer: pH=7.2, 2 mM MgCl2, 1 mM ATP, 0.5 mM TNAD, 1 mM dithiothreitol), to which was added 1 μl of a DMSO solution of the compound or DMSO as control. Then, 20 μl of pre-ice-cooled enzyme mixture (FLAG-GK, 20 U/ml G6PDH) was distributed thereto, to which was added 10 μl of 25 mM glucose as substrate to initiate the reaction (final glucose concentration=2.5 mM). After starting the reaction, the absorbance at 405 nm was measured every 30 seconds for 10 minutes to evaluate the compound based on the initial increase for 5 minutes. FLAG-GK was added so that the increase of absorbance after 5 minutes fell between 0.05 to 0.1 in the presence of 1% DMSO.
The OD values of the respective compounds were measured in the respective concentrations, wherein the OD value of DMSO as control is regarded as 100%. From the OD values at the respective concentrations, Emax (%, 2.5 mM Glu) and EC50 (nM, 2.5 mM Glu) were calculated and used as indicators of the GK activation capability of the compounds. According to the above assay, the GK activation capability of the exemplified compounds of the present invention was determined. […] Where different enantiomers of the same compound were tested, two numbers are provided. Where 3 numbers are provided, for example, Ex. #30, data for the racemic form is also shown.

Recombinant human liver glucokinase (FLAG fusion protein), sequence (P35557 other isoform, or with tags, fused parts or gaps): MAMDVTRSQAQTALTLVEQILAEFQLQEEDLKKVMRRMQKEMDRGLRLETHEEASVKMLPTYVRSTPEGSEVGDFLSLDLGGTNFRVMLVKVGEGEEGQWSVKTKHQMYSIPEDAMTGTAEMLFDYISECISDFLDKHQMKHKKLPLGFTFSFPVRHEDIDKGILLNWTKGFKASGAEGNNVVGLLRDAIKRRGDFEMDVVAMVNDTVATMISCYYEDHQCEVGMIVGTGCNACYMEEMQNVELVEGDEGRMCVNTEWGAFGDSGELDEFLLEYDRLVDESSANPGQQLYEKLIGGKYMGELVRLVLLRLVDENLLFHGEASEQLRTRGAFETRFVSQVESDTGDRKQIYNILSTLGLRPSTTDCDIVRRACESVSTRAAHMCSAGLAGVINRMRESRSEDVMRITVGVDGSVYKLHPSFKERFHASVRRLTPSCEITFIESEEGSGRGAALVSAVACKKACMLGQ

**Q.** How did the EC50 turn out when `CCS(=O)(=O)c1ccc(Oc2cc3cc(-c4ccc(CCC(=O)OC)cn4)[nH]c3cc2C2CCC(=O)N2C)cc1` (stereo not drawn) [Example 1, METHYL 3-(6-{5-[4-(ETHYLSULFONYL)PHENOXY]-6-(1-METHYL-5-OXOPYRROLIDIN-2-YL)-1H-INDOL-2-YL}PYRIDIN-3-YL)PROPANOATE] was run?
**A.** 1.9 nM

**Q.** What about the Emax of the same molecule?
**A.** 624%

**Q.** With `CN1C(=O)CCC1c1cc2[nH]c(-c3ncc(CCC(=O)O)s3)cc2cc1Oc1ccc(S(C)(=O)=O)nc1` (stereo not drawn) [Example 31, 3-(2-(6-(1-methyl-5-oxopyrrolidin-2-yl)-5-((6-(methylsulfonyl)pyridin-3-yl)oxy)-1H-indol-2-yl)thiazol-5-yl)propanoic acid] as the molecule, how does the EC50 read?
**A.** 68.8 nM

**Q.** What about the Emax of the same molecule?
**A.** 599%

**Q.** With `CS(=O)(=O)c1ccc(Oc2cc3cc(-c4ccc(CCC(=O)O)cn4)[nH]c3nc2CN2CCCC2=O)cn1` [Example 9, 3-[6-(5-{[6-(METHYLSULFONYL)PYRIDIN-3-YL]OXY}-6-[(2-OXOPYRROLIDIN-1-YL)METHYL]-1H-PYRROLO[2,3-B]PYRIDIN-2-YL)PYRIDIN-3-YL]PROPANOIC ACID] as the molecule, how does the EC50 read?
**A.** 533 nM

**Q.** For `COCc1ccc(Oc2cc3cc(-c4ccc(CCC(=O)O)cn4)[nH]c3cc2C2CCC(=O)N2C)cn1` (stereo not drawn) [Example 19, 3-(6-(5-((6-(methoxymethyl)pyridin-3-yl)oxy)-6-(1-methyl-5-oxopyrrolidin-2-yl)-1H-indol-2-yl)pyridin-3-yl)propanoic acid], which EC50 is on record?
**A.** 71.8 nM

**Q.** And the Emax?
**A.** 431%

**Q.** With `CCS(=O)(=O)c1ccc(Oc2cc3cc(-c4ccc(P(C)(=O)O)cn4)[nH]c3cc2C2CCC(=O)N2C)cc1` (stereo not drawn) [Example 12, (6-(5-(4-(ETHYLSULFONYL)PHENOXY)-6-(1-METHYL-5-OXOPYRROLIDIN-2-YL)-1H-INDOL-2-YL)PYRIDIN-3-YL)(METHYL)PHOSPHINIC ACID] as the molecule, how does the EC50 read?
**A.** 53.6 nM

**Q.** What about the Emax of the same molecule?
**A.** 614%

**Q.** How did the EC50 turn out when `CN1C(=O)CCC1c1cc2[nH]c(-c3cnccn3)cc2cc1Oc1ccc(CCC(=O)O)cc1` (stereo not drawn) [Example 21, 3-(4-((6-(1-methyl-5-oxopyrrolidin-2-yl)-2-(pyrazin-2-yl)-1H-indol-5-yl)oxy)phenyl)propanoic acid] was run?
**A.** 39.1 nM

**Q.** What about the Emax of the same molecule?
**A.** 628%

**Q.** Which results are given for `CN1C(=O)CCC1c1cc2[nH]c(-c3ccccn3)cc2cc1Oc1ccc(CC(=O)O)cc1` (stereo not drawn) [Example 27, 2-(4-((6-(1-methyl-5-oxopyrrolidin-2-yl)-2-(pyridin-2-yl)-1H-indol-5-yl)oxy)phenyl)acetic acid]?
**A.** EC50: 23.8 nM; Emax: 630%

**Q.** Which results are given for `COC(=O)CCc1ccc(-c2cc3cc(Oc4ccc(C(=O)N5CCC5)nc4)c(C4CCCN4C(C)=O)cc3[nH]2)nc1` (stereo not drawn) [Example 10, METHYL 3-{6-[6-(1-ACETYLPYRROLIDIN-2-YL)-5-{[6-(AZETIDIN-1-YLCARBONYL)PYRIDIN-3-YL]OXY}-1H-INDOL-2-YL]PYRIDIN-3-YL}PROPANOATE]?
**A.** EC50: 13.9 nM; Emax: 419%

**Q.** For `CC(=O)N1CCCC1c1cc2[nH]c(-c3ccc(CCC(=O)O)cn3)cc2cc1Oc1ccc(C(=O)N2CCC2)nc1` (stereo not drawn) [Example 11, 3-{6-[6-(1-ACETYLPYRROLIDIN-2-YL)-5-{[6-(AZETIDIN-1-YLCARBONYL)PYRIDIN-3-YL]OXY}-1H-INDOL-2-YL]PYRIDIN-3-YL}PROPANOIC ACID], which EC50 is on record?
**A.** 187 nM

**Q.** And the Emax?
**A.** 410%

**Q.** Which results are given for `CS(=O)(=O)c1ccc(Oc2cc3cc(-c4ccc(CCC(=O)O)cn4)[nH]c3cc2Oc2ccccc2F)cc1` [Example 7, 3-(6-{6-(2-FLUOROPHENOXY)-5-[4-(METHYLSULFONYL)PHENOXY]-1H-INDOL-2-YL}PYRIDIN-3-YL)PROPANOIC ACID]?
**A.** EC50: 774 nM; Emax: 15.7%

**Q.** `CCOP(=O)(Cc1cnc(-c2cc3cc(Oc4ccc(S(C)(=O)=O)nc4)c(C4CCC(=O)N4C)cc3[nH]2)s1)OCC` (stereo not drawn) [Example 37, diethyl((2-(6-(1-methyl-5-oxopyrrolidin-2-yl)-5-((6-(methylsulfonyl)pyridin-3-yl)oxy)-1H-indol-2-yl)thiazol-5-yl)methyl)phosphonate] was tested. Which EC50 did it give?
**A.** 23.5 nM

**Q.** And the Emax?
**A.** 696%
